Assay results published in patent publication US20080085889A1, “Amidomethyl-Substituted 1-(Carboxyalkyl) Cyclopentyl-Carbonylamino-Benzazepine-N-Acetic Acid Compounds, Process and Intermediate Products for Their Preparation and Pharmaceutical Compositions Containing Them” (SOLVAY PHARMACEUTICALS GmbH, priority 2003, published 2008).
Entries after “also recorded” stand apart in the source; their conditions may differ. Marks after values point to notes of the source that are not given here.

Assays:
[1] = tested on: TUNEL positive cells in heart, liver and kidney; assay: Adriamycin toxicity: determination of anti-apoptotic activity (TUNEL staining); format: in vivo, Wistar rats; conditions: for TUNEL positive cells, Heart / TUNEL positive cells, Kidney / TUNEL positive cells, Liver: ± SEM
Description: 2. Adriamycin Toxicity: Determination of Anti-Apoptotic Activity
Wistar rats, weighing 200-250 g, were anesthetized with chloral hydrate, 400 mg/kg, and Alzet osmotic minipumps (2 ML1), were implanted subcutaneously (=s.c.). The pumps had been filled with either vehicle or solution containing compounds of the invention at the appropriate concentration and primed prior to implantation. Animals subsequently received adriamycin at three equal daily doses of 5 mg/kg i.p. on days 1, 2 and 3. Rats were euthanized 5 days after the first injection of adriamycin and transcardially perfused with a solution containing 4% paraformaldehyde in phosphate buffer. The heart, liver and kidneys were subsequently removed and embedded in parafin.
TUNEL staining: For terminal deoxynucleotide transferase-mediated dUTP nick end-label (TUNEL) based histological analysis, organs were post-fixed for 5 days at 4° C. and paraffin-embedded. TUNEL staining was performed on 10 μm thick paraffin sections using the ApopTag Peroxidase kit (S 7100, Oncor Appligene, Heidelberg, Germany) according to the manufacturer's instructions. Briefly, after pretreatment with proteinase K and quenching of endogenous peroxidase, sections were incubated in equilibration buffer followed by working strength TdT enzyme (incorporating digoxigenin labeled dUTP nucleotides to free 3′-OH DNA termini), (1 hr, 37° C.). Sections were incubated in stop/wash buffer (30 min, 37° C.), then with anti-digoxigenin-peroxidase conjugate (30 min) followed by DAB substrate (Sigma, Deisenhofen, Germany) and lightly counterstained with methylgreen.
Wistar rats were administered adriamycin at the cumulative dose of 15 mg/kg i.p. The test substance of Example 4 was administered s.c. at the doses of 20, 50 or 100 mg/kg and day by means of Alzet osmotic minipumps over 5 days. Animals were euthanized and transcardially perfused 5 days after the first injection of adriamycin and the heart, kidney and liver were processed for TUNEL staining. Densities of TUNEL positive cells were determined as described in the methods. Results for each organ (heart, liver, kidney) were measured as mean densities of TUNEL positive cells ±SEM for the control groups and the different test groups (20, 50 or 100 mg/kg and day of test compound of Example 4) and listed in table 8 below.
Comparisons between groups were performed by means of Student's t test (**P<0.01; ***P<0.001 compared to vehicle treated rats).

[2] = tested on: formation of ET-1 from Big-ET-1; assay: In vivo inhibition of the Big-ET-1-induced blood pressure increase in anaesthetised rats, i.v. single dose; parameters: species or system Rats (Sprague-Dawley); conditions: 5 min before 0.5 nmol/kg Big-ET-1, negative values indicate inhibition
In short: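 Anaesthetised (Rompun/Ketavet) Sprague-Dawley rats got test substance i.v. via jugular vein, as a rule 10 μmol/kg, or vehicle; 5 min later 0.5 nmol/kg Big-ET-1 infused over 1 min. Carotid pressure recorded every 5 min for 30 min; value is % inhibition versus vehicle of maximum Big-ET-1-induced systolic pressure rise, negative values meaning inhibition.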

[3] = tested on: maximal SAP response to Big-ET; assay: In vivo i.v. potency (ID50) to inhibit maximal SAP response to Big-ET in anesthetized rats; parameters: species or system Rats (Sprague-Dawley); conditions: Rattus norvegicus, iv, dose at which the pressor effect of Big-ET was suppressed by 50%
Description: Rats (Sprague-Dawley, CRLD=Charles River) were anaesthetised with 1 ml/kg Rompun/Ketavet 1:1. A pressure transducer (Statham) was inserted into the carotid artery to measure blood pressure.
For intravenous testing, one jugular vein was cannulated for administering the substance, and the other for administering Big-ET-1. […] Five minutes later, 0.5 nmol/kg Big-ET-1 was infused over a period of one minute. SAP, DAP, and heart rate were measured before administration of the substance, then before administration of Big-ET, and subsequently every five minutes after Big-ET administration over a period of 30 minutes using the pressure transducer in known manner. The maximum Big-ET-induced increase in blood pressure was calculated from the measured values as the difference between the value measured at the moment of maximum development of the Big-ET action (typically after 5 min) and the value measured before Big-ET infusion. The dose at which the pressor effect of Big-ET was suppressed by 50% (ID50) was estimated from the inhibitory effects observed over the range of dosages tested (n>5 rats for each dose).
The intravenous potency of the test compounds of Formula I (given as ID50 values) to inhibit the maximal SAP response to Big ET in anesthetized rats is set forth in the following Table 3b: […]

[4] = adriamycin 15 mg/kg cumulative i.p. + 20 mg/kg and day s.c. minipump over 5 days
[5] = adriamycin 15 mg/kg cumulative i.p. + 50 mg/kg and day s.c. minipump over 5 days
[6] = adriamycin 15 mg/kg cumulative i.p. + 100 mg/kg and day s.c. minipump over 5 days
[7] = Rattus norvegicus, iv, 10 μmol/kg, read-out: % substance-related inhibition of the maximum Big-ET effect on SAP vs. control

For “{(3S)-3-[({1-[(2″rel1″)-2-ethoxycarbonyl)-4-(isopropylamino)-4-oxobutyl]cyclopentyl}-carbonyl)amino]-2-oxo-2,3,4,5-tetrahydro-1H-1-benzazepin-1-yl}acetic acid [Example 4]”, the “protection against adriamycin toxicity (densities of TUNEL positive cells)” value ([1]; 20, 50 or 100 mg/kg and day s.c., heart, liver, kidney) was “significant protection against adriamycin toxicity in the heart, liver and kidney; also recorded: dose-dependently decreased the cytotoxic effect of adriamycin in all three organs”, the “TUNEL positive cells, Heart” value [1, 4] was 4.350 ± 0.248*** cells/mm3 × 102 and the “TUNEL positive cells, Kidney” value [1, 4] was 7.900 ± 0.306*** cells/mm3 × 102. The “TUNEL positive cells, Liver” value [1, 4] was 8.750 ± 0.301** cells/mm3 × 102, the “TUNEL positive cells, Heart” value [1, 5] was 3.700 ± 0.260*** cells/mm3 × 102 and the “TUNEL positive cells, Kidney” value [1, 5] was 7.850 ± 0.587** cells/mm3 × 102. The “TUNEL positive cells, Liver” value [1, 5] was 8.250 ± 0.271*** cells/mm3 × 102, the “TUNEL positive cells, Heart” value [1, 6] was 3.550 ± 0.157*** cells/mm3 × 102 and the “TUNEL positive cells, Kidney” value [1, 6] was 6.300 ± 0.260*** cells/mm3 × 102. For the same molecule, the “TUNEL positive cells, Liver” value [1, 6] was 7.450 ± 0.329*** cells/mm3 × 102, the “most effective dose against adriamycin toxicity” value ([1]; of 20, 50 or 100 mg/kg and day s.c.) was 100 mg/kg and day and the “% substance-related inhibition of the maximum Big-ET effect on SAP vs. control” value ([2]; 10 μmol/kg) was −95%.
`CCN(CCCCN)C(=O)CC(CC1(C(=O)NC2CCc3ccccc3N(CC(=O)O)C2=O)CCCC1)C(=O)O` [Example 81, (2″rel1″)-4-[(4-aminobutyl)(ethyl)amino]-2-{[1-({[(3S)-1-(carboxymethyl)-2-oxo-2,3,4,5-tetrahydro-1H-1-benzazepin-3-yl]amino}carbonyl)cyclopentyl]methyl}-4-oxobutanoic acid] gave an ED50 [3] of 0.05 µmol/kg and a change in vivo at 0.3 µmol/kg ([2]; Rattus norvegicus, iv, 0.3 μmol/kg, read-out: % substance-related inhibition of the maximum Big-ET effect on SAP vs. control) of -73%.
With `CN(C)CCCN(C)C(=O)CC(CC1(C(=O)NC2CCc3ccccc3N(CC(=O)O)C2=O)CCCC1)C(=O)O` (centres unmarked) [Example 64, 2-[(1-{[1-(carboxymethyl)-2-oxo-2,3,4,5-tetrahydro-1H-1-benzazepin-3-yl]carbamoyl}cyclopentyl)methyl]-4-{[3-(dimethylamino)propyl](methyl)amino}-4-oxobutanoic acid] the ED50 [3] was 0.2 µmol/kg and the change in vivo at 10 µmol/kg [2, 7] was -108%.
`CC(C)NC(=O)CC(CC1(C(=O)N[C@H]2CCc3ccccc3N(CC(=O)O)C2=O)CCCC1)C(=O)O` (stereo in doubt) [Example 3, (2″rel1″)-2-{[(3S)-1-({[1-(carboxymethyl)-2-oxo-2,3,4,5-tetrahydro-1H-1-benzazepin-3-yl]amino}-carbonyl)cyclopentyl]methyl}-4-(isopropylamino)-4-oxobutyric acid] showed a change in vivo at 10 µmol/kg [2, 7] of -94%.
